Data: US20060287257A1, “Pharmaceutical compositions to treat diseases caused by mycobacterium” (priority 2005, published 2006)

System: Mycobacterium tuberculosis strain H37Rv
Assay: Screen against Mycobacterium tuberculosis strain H37Rv by serial dilution
Format: cell-based
Conditions: M. tuberculosis H37Rv
Text: All of the compounds were screened against Mycobacterium tuberculosis strain H37Rv by serial dilution. The minimum inhibitory concentration and degree of inhibition is presented.

Row | Compound | % Inhibition (degree of inhibition) | MIC (minimum inhibitory concentration)
1 | chlorhexidine beta cyclodextrin sulfobutyl ether [Compound 8] | 94% | 3.13 µg/mL
2 | Isoniazide dodecyl benzene sulfonate [Compound 2] | 99% | 0.78 µg/mL
3 | N-cocoylamide-L-argimine ethyl ester triclosanate [Compound 3] | 94% | 1.56 µg/mL
4 | CCCCCCCCCCCC(=O)O.NC(=NCCCCCCN=C(N)N=C(N)Nc1ccc(Cl)cc1)N=C(N)Nc1ccc(Cl)cc1 [Compound 6, chlorhexidine dilaurate] | 99% | 3.13 µg/mL
5 | N=C(NCCCCCCNC(=N)NC(=N)Nc1ccc(Cl)cc1)NC(=N)Nc1ccc(Cl)cc1.Oc1ccccc1-c1ccccc1.Oc1ccccc1-c1ccccc1 [Compound 9, chlorhexidine di-ortho phenyl phenol] | 99% | 3.13 µg/mL
6 | chlorhexidine dithymol [Compound 4] | 98% | 1.56 µg/mL
7 | N=C(NCCCCCCNC(=N)NC(=N)Nc1ccc(Cl)cc1)NC(=N)Nc1ccc(Cl)cc1.Sc1nc2ccccc2s1.Sc1nc2ccccc2s1 [Compound 5, chlorhexidine di-2-mercaptobenzthiazole] | 90% | 1.56 µg/mL
8 | N=C(NCCCCCCNC(=N)NC(N)=Nc1ccc(Cl)cc1)NC(N)=Nc1ccc(Cl)cc1.NCCCC(O)(P(=O)(O)O)P(=O)(O)O.NCCCC(O)(P(=O)(O)O)P(=O)(O)O [Compound 7, chlorhexidine di [4-amino-1-hydroxybutylidene] bis-phosphonate] | 94% | 3.13 µg/mL
9 | CCCCCCCCCCCCCCCCCC(=O)O.CCCCCCCCCCCCCCCCCC(=O)O.N=C(NCCCCCCNC(=N)NC(=N)Nc1ccc(Cl)cc1)NC(=N)Nc1ccc(Cl)cc1 [Compound 11, chlorhexidine distearate] | 99% | 3.13 µg/mL
